In BindingDB's records for PubMed 8100350 (University of Pennsylvania, 1993):
*1 amine or outer side, *2 acyl side, *3 side chain or, on linkers, in order; H or OH if unused. Where a SMILES comes first, the peptide text is derived from it. Bridges are numbered along the chain shown (N, C = ends). [ ]: non-standard residue; d: D form. The star is where a group is joined. ξ: configuration not given here. Phe(4-NO2) = N[C@@H](Cc1ccc([N+](=O)[O-])cc1)C(=O)O; NH(1-naphthylmethyl) = c1ccc2c(CN*)cccc2c1; Phe(4-Cl) = N[C@@H](Cc1ccc(Cl)cc1)C(=O)O; 1Nal = N[C@@H](Cc1cccc2ccccc12)C(=O)O; 2Nal = N[C@@H](Cc1ccc2ccccc2c1)C(=O)O; d1Nal = N[C@H](Cc1cccc2ccccc12)C(=O)O; d2Nal = N[C@H](Cc1ccc2ccccc2c1)C(=O)O; dThr(3ξ) = CC(O)[C@@H](N)C(=O)O; X1 = O=C(C(N[*:1])S[*:3])[*:2]; Thr(3ξ) = CC(O)[C@H](N)C(=O)O; NMeA = CN[C@@H](C)C(=O)O; ξF = NC(Cc1ccccc1)C(=O)O; Abu = CC[C@H](N)C(=O)O; X2 = CC(O)[C@H](CO)N*; Ahp = NCCCCCCC(=O)O; ξC = NC(CS)C(=O)O; Mpa = O=C(O)CCS

Key:
[1] = molecular target: Somatostatin receptor type 3 (Mus musculus, UniProt P30935)
Chain of Somatostatin receptor type 3 (P30935 whole entry): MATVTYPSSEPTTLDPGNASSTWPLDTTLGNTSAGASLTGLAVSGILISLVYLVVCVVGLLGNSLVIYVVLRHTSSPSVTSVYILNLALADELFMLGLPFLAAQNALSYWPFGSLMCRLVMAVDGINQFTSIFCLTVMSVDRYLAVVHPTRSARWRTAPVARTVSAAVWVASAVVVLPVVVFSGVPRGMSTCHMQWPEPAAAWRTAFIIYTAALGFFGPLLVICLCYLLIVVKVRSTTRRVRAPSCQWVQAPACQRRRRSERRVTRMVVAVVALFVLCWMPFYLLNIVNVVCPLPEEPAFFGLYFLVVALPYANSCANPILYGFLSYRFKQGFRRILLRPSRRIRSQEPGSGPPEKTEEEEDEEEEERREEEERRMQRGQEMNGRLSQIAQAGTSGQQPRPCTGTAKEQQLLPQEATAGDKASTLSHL

[2] = molecular target: Somatostatin receptor type 1 (Homo sapiens, UniProt P30872)
Chain of Somatostatin receptor type 1 (P30872 whole entry): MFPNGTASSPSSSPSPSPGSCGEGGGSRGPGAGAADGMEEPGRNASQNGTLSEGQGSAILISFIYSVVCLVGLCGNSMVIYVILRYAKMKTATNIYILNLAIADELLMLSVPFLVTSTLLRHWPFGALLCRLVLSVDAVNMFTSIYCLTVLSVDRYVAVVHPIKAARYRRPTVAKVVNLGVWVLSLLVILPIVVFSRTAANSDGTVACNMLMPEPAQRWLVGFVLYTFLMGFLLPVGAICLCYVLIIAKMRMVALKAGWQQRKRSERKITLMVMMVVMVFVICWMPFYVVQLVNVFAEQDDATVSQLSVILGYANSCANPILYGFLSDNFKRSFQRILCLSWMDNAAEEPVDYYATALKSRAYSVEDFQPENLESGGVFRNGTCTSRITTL

[3] = molecular target: Somatostatin receptor type 2 (Mus musculus, UniProt P30875)
Chain of Somatostatin receptor type 2 (P30875 whole entry): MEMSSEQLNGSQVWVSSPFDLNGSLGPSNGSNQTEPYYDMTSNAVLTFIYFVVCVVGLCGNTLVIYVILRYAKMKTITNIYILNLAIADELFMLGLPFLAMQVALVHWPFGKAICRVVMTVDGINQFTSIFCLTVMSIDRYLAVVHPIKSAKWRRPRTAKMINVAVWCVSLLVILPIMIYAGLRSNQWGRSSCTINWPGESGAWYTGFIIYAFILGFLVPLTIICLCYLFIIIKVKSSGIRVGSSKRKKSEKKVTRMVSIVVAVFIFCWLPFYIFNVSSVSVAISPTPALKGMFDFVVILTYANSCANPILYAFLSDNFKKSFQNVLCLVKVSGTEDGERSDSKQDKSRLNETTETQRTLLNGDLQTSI

| Compound | Ki [1] [nM] | Ki [2] [nM] | Ki [3] [nM] |
| --- | --- | --- | --- |
| CC(C)[C@@H]1NC(=O)[C@H](CCCCN)NC(=O)[C@@H](Cc2c[nH]c3ccccc23)NC(=O)[C@H](Cc2ccc(O)cc2)NC(=O)[C@@H](C)N(C)C(=O)[C@H](Cc2ccccc2)NC1=O | 4.7 | 419 | > 10000 |
| CC(O)[C@H](CO)NC(=O)[C@@H]1CSSCC(NC(=O)C(N)Cc2ccccc2)C(=O)N[C@H](Cc2ccccc2)C(=O)N[C@H](Cc2c[nH]c3ccccc23)C(=O)N[C@H](CCCCN)C(=O)N[C@H](C(C)O)C(=O)N1 (stereo partly specified) (H-[ξF][ξC][dF][dW][dK][dThr(3ξ)]C-X2; disulfide 2-7) | 3 | – | 2.4 |
| C[C@@H](O)[C@@H]1NC(=O)[C@H](CCCCN)NC(=O)[C@@H](Cc2c[nH]c3ccccc23)NC(=O)[C@H](Cc2ccccc2)NC(=O)[C@@H]2CCCN2C(=O)[C@H](Cc2ccccc2)NC1=O (cyclo(PF[dW]KTF)) | 108 | 1000 | 8.6 |
| CC(C)[C@@H]1NC(=O)[C@H](CCCCN)NC(=O)[C@@H](Cc2c[nH]c3ccccc23)NC(=O)[C@H](Cc2ccc(O)cc2)NC(=O)[C@@H](NC(=O)[C@H](N)Cc2ccc3ccccc3c2)CSSC[C@@H](C(=O)N[C@H](C(N)=O)[C@@H](C)O)NC1=O [3-(2-Naphtyl)-D-Ala-L-Cys(1)-L-Tyr-D-Trp-L-Lys-L-Val-L-Cys(1)-L-Thr-NH2] | 5.6 | 789 | 1.6 |
| C[C@@H](O)[C@@H]1NC(=O)[C@H](CCCCN)NC(=O)[C@@H](Cc2c[nH]c3ccccc23)NC(=O)[C@H](Cc2ccccc2)NC(=O)[C@@H]2CSSCC(NC1=O)C(=O)NCCCCCCC(=O)N2 [(1R,4S,7S,10R,13S,16R)-4-[(R)-1-Hydroxyethyl]-7-(4-aminobutyl)-10-(1H-indole-3-ylmethyl)-13-benzyl-28,29-dithia-2,5,8,11,14,17,25-heptaazabicyclo[14.10.4]triacontane-3,6,9,12,15,18,26-heptone] (cyclo([Ahp]CF[dW]KT[ξC]); disulfide 2-7) | 0.08 | 1000 | 83 |
| CC1NC(=O)C(CCCCN)NC(=O)C(Cc2c[nH]c3ccccc23)NC(=O)C(Cc2ccc(O)cc2)NC(=O)C(NC(=O)C(N)Cc2ccccc2)CSSCC(C(=O)NCc2cccc3ccccc23)NC1=O (stereo unspecified) [BIM 23034] (H-FCYWKAC-{NH(1-naphthylmethyl)}; disulfide 2-7; configuration not given here) | 65 | 1000 | 0.002 |
| CC(C)[C@@H]1NC(=O)[C@H](CCCCN)NC(=O)[C@@H](Cc2c[nH]c3ccccc23)NC(=O)[C@H](Cc2ccc(O)cc2)NC(=O)[C@@H](NC(=O)[C@H](N)Cc2ccc3ccccc3c2)CSSC[C@@H](C(=O)N[C@@H](Cc2ccc3ccccc3c2)C(N)=O)NC1=O [BIM 23042] (H-[d2Nal]CY[dW]KVC[2Nal]-NH2; disulfide 2-7) | 207 | 1000 | 4.2 |
| CC(O)[C@H](NC(=O)[C@H](CCCCN)NC(=O)[C@@H](Cc1c[nH]c2ccccc12)NC(=O)[C@H](Cc1ccccc1)NC(=O)[C@@H](C)NC(=O)[C@@H](N)Cc1ccccc1)C(=O)N[C@@H](C)C(=O)N[C@H](C(N)=O)[C@@H](C)O (stereo partly specified) [BIM 23051] (H-F[dA]F[dW]K[Thr(3ξ)]AT-NH2) | 72 | 1000 | 836 |
| CC(C)[C@H](NC(=O)[C@H](CCCCN)NC(=O)[C@@H](Cc1c[nH]c2ccccc12)NC(=O)[C@H](Cc1ccc(O)cc1)NC(=O)[C@H](Cc1ccccc1)NC(=O)[C@H](N)Cc1ccccc1)C(=O)N[C@@H](Cc1ccccc1)C(=O)N[C@H](Cc1cccc2ccccc12)C(N)=O [BIM 23056] (H-[dF]FY[dW]KVF[d1Nal]-NH2) | 0.02 | 1000 | > 10000 |
| CC(C)[C@H](NC(=O)[C@H](CCCCN)NC(=O)[C@@H](Cc1c[nH]c2ccccc12)NC(=O)[C@H](Cc1ccc(O)cc1)NC(=O)[C@H](Cc1ccc(Cl)cc1)NC(=O)[C@H](N)Cc1ccccc1)C(=O)N[C@@H](Cc1ccccc1)C(=O)N[C@H](C(N)=O)[C@@H](C)O [BIM 23057] (H-[dF][Phe(4-Cl)]Y[dW]KVFT-NH2) | 4.8 | 1000 | 2.4 |
| CC(O)C1NC(=O)C(CCCCN)NC(=O)C(Cc2c[nH]c3ccccc23)NC(=O)C(Cc2ccc(O)cc2)NC(=O)C(NC(=O)C(N)Cc2ccccc2)CSSCC(C(=O)NCc2cccc3ccccc23)NC1=O (stereo unspecified) [BIM 23060] (H-FCYWKTC-{NH(1-naphthylmethyl)}; disulfide 2-7; configuration not given here) | 17.4 | 1000 | 0.01 |
| CC(C)[C@H](NC(=O)[C@H](CCCCN)NC(=O)[C@@H](Cc1c[nH]c2ccccc12)NC(=O)[C@H](Cc1ccc(O)cc1)NC(=O)[C@H](Cc1ccc(Cl)cc1)NC(=O)[C@@H](N)Cc1ccccc1)C(=O)N[C@@H](Cc1ccccc1)C(=O)N[C@@H](Cc1ccc2ccccc2c1)C(N)=O [BIM 23063] (H-F[Phe(4-Cl)]Y[dW]KVF[2Nal]-NH2) | 81 | 1000 | 248 |
| CC(C)[C@H](NC(=O)[C@H](CCCCN)NC(=O)[C@@H](Cc1c[nH]c2ccccc12)NC(=O)[C@H](Cc1ccc(O)cc1)NC(=O)[C@H](Cc1ccc(Cl)cc1)NC(=O)[C@@H](N)Cc1ccccc1)C(=O)N[C@@H](Cc1ccccc1)C(=O)N[C@H](C)C(N)=O [BIM 23064] (H-F[Phe(4-Cl)]Y[dW]KVF[dA]-NH2) | 34 | 1000 | 948 |
| CC(C)[C@H](NC(=O)[C@H](CCCCN)NC(=O)[C@@H](Cc1c[nH]c2ccccc12)NC(=O)[C@H](Cc1ccc(O)cc1)NC(=O)[C@H](Cc1ccc([N+](=O)[O-])cc1)NC(=O)[C@H](N)Cc1ccccc1)C(=O)N[C@@H](Cc1ccccc1)C(=O)N[C@H](C(N)=O)[C@@H](C)O [BIM 23066] (H-[dF][Phe(4-NO2)]Y[dW]KVFT-NH2) | 1.1 | 1000 | 3.1 |
| CC[C@H](NC(=O)[C@@H](N)Cc1ccc(Cl)cc1)C(=O)N[C@@H](Cc1ccc(O)cc1)C(=O)N[C@H](Cc1c[nH]c2ccccc12)C(=O)N[C@@H](CCCCN)C(=O)N[C@H](C(=O)N[C@@H](C)C(=O)N[C@H](Cc1ccccc1)C(N)=O)C(C)C [BIM 23067] (H-[Phe(4-Cl)][Abu]Y[dW]KVA[dF]-NH2) | 123 | – | 135 |
| C[C@@H](O)[C@H](NC(=O)[C@H](Cc1ccccc1)NC(=O)[C@@H](NC(=O)[C@H](CCCCN)NC(=O)[C@@H](Cc1c[nH]c2ccccc12)NC(=O)[C@H](Cc1ccc(O)cc1)NC(=O)[C@H](Cc1ccc(Cl)cc1)NC(=O)[C@H](N)Cc1ccccc1)[C@@H](C)O)C(N)=O [BIM 23068] (H-[dF][Phe(4-Cl)]Y[dW]KTFT-NH2) | 0.8 | 1000 | 0.15 |
| CC(O)[C@H](NC(=O)[C@H](CCCCN)NC(=O)[C@@H](Cc1c[nH]c2ccccc12)NC(=O)[C@H](Cc1ccc(O)cc1)NC(=O)[C@@H](C)NC(=O)[C@@H](N)Cc1ccccc1)C(=O)N[C@@H](C)C(=O)N[C@@H](Cc1cccc2ccccc12)C(N)=O (stereo partly specified) [BIM 23070] (H-F[dA]Y[dW]K[Thr(3ξ)]A[1Nal]-NH2) | 111 | 1000 | 7.8 |
| CC[C@@H]1NC(=O)[C@H](CCCCN)NC(=O)[C@@H](Cc2c[nH]c3ccccc23)NC(=O)[C@H](Cc2ccc(O)cc2)NC(=O)[C@H](C)N(C)C(=O)[C@H](Cc2ccccc2)NC1=O [BIM-23027] (cyclo([Abu]F[NMeA]Y[dW]K)) | 2.4 | 1000 | 0.001 |
| CC(C)[C@H](NC(=O)[C@H](CCCCN)NC(=O)[C@@H](Cc1c[nH]c2ccccc12)NC(=O)[C@H](Cc1ccc(O)cc1)NC(=O)[C@H](Cc1ccccc1)NC(=O)[C@H](N)Cc1ccccc1)C(=O)N[C@@H](Cc1ccccc1)C(=O)N[C@H](C(N)=O)[C@@H](C)O [BIM-23058] (H-[dF]FY[dW]KVFT-NH2) | 0.04 | 1000 | 46 |
| CC(C)[C@@H]1NC(=O)[C@H](CCCCN)NC(=O)[C@@H](Cc2c[nH]c3ccccc23)NC(=O)[C@H](Cc2ccc(O)cc2)NC(=O)CCSSC(C(=O)N[C@@H](Cc2ccccc2)C(N)=O)NC1=O (stereo partly specified) [CAS_117580-24-2] ([Mpa]Y[dW]KV[X1]F-NH2; disulfide 1-6) | 133 | 1000 | 6.1 |
| C[C@@H](O)[C@H](NC(=O)[C@H](Cc1ccccc1)NC(=O)[C@@H](NC(=O)[C@H](CCCCN)NC(=O)[C@@H](Cc1c[nH]c2ccccc12)NC(=O)[C@H](Cc1ccccc1)NC(=O)[C@H](Cc1ccccc1)NC(=O)[C@H](N)Cc1ccccc1)[C@@H](C)O)C(N)=O [CAS_133073-82-2] (H-[dF]FF[dW]KTFT-NH2) | 0.42 | 23 | 32 |
| CC(C)[C@@H]1NC(=O)[C@H](CCCCN)NC(=O)[C@@H](Cc2c[nH]c3ccccc23)NC(=O)[C@H](Cc2ccc(O)cc2)NC(=O)[C@H](C)N(C)C(=O)[C@H](Cc2ccccc2)NC1=O [CAS_3086456] | 12 | – | 0.18 |
| C[C@@H](O)[C@@H]1NC(=O)[C@H](Cc2ccccc2)NC(=O)[C@H]([C@@H](C)O)NC(=O)[C@H](CCCCN)NC(=O)[C@@H](Cc2c[nH]c3ccccc23)NC(=O)[C@H](Cc2ccccc2)NC(=O)[C@H](Cc2ccc(Cl)cc2)NC(=O)[C@H](CC(N)=O)NC(=O)[C@H](CCCCN)NC(=O)[C@@H](N)CSSC[C@@H](C(=O)O)NC(=O)[C@H](CO)NC1=O [EC5-21] (H-CKN[Phe(4-Cl)]F[dW]KTFTSC-OH; disulfide 1-12) | 2.1 | – | 0.005 |
| C[C@H](N)C(=O)NCC(=O)N[C@H]1CSSC[C@@H](C(=O)O)NC(=O)[C@H](CO)NC(=O)[C@H]([C@@H](C)O)NC(=O)[C@H](Cc2ccccc2)NC(=O)[C@H]([C@@H](C)O)NC(=O)[C@H](CCCCN)NC(=O)[C@@H](Cc2c[nH]c3ccccc23)NC(=O)[C@H](Cc2ccccc2)NC(=O)[C@H](Cc2ccccc2)NC(=O)[C@H](CC(N)=O)NC(=O)[C@H](CCCCN)NC1=O [SRIF-D-Trp8] | – | – | 0.005 |
